pKi: −log10 of the molar value. Like-named read-outs stand apart in the source and are kept apart here.
Assays:
maximal electroshock [1] = experiment: Maximal electroshock (MES), anticonvulsive action, mouse i.p.; format: in vivo
Description: (§1) ^3) Mouse i.p.: MES = maximal electroshock, PTZ = s.c. pentetrazole
(§2) ^5) In % of the protected animals; n.t. = not tested

s.c. pentetrazole = s.c. pentetrazole (PTZ), anticonvulsive action, mouse i.p.; format: in vivo; settings: ip, read-out: Action, PTZ (protected animals)
Description: as §1, §2

adenosine receptor (A3) = biological target: T1, adenosine receptor (A3) (Homo sapiens, UniProt P0DMS8); experiment: Binding at the adenosine receptor (A3) and selectivities; settings: for pKi: adenosine A3 receptor; for selectivity A3/A1: ratio A3/A1; for selectivity A3/A2: ratio A3/A2
T1 sequence (P0DMS8 1-318): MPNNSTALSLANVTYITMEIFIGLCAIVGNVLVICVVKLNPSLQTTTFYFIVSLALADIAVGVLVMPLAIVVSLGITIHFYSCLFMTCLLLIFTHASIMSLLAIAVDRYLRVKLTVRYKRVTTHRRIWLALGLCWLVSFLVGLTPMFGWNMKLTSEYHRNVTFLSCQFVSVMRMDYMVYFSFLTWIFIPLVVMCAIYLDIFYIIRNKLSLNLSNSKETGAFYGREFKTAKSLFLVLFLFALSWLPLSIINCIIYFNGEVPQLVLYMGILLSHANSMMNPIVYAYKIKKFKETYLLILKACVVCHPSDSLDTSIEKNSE

[2] = Octanol/water partition coefficient
in vivo = settings: rat, po
Description: (§3) Analogous results were obtained for the orally administered tests.

maximal electroshock [3] = experiment: Maximal electroshock, anticonvulsive action, rat p.o.; format: in vivo; settings: for ED50: po, maximal electroshock
Description: Week-blad, Sc. Ed. 14, 132 (1992) and Antiepileptic Drugs, Third Ed., Raven Press, New York 1989.
as §3

[4] = tested on: eosinophilic granulocytes; experiment: Inhibition of infiltration of eosinophilic granulocytes into the lungs (BAL, ovalbumin-challenged guinea-pigs, oral); format: in vivo, guinea-pig (Dunkin Hartley Shoe); settings: guinea-pig, 100 mg/kg, 2 hours before allergen challenge
Description: The compounds of the present invention were tested in vivo for antiasthmatic action after oral administration to male guinea-pigs, and the inhibition of the infiltration of the eosinophilic granulocytes into the lungs was determined. Male guinea-pigs (Dunkin Hartley Shoe) weighing 200-250 g were actively sensitized by an s.c. injection of ovalbumin (10 μg+1 mg of aluminum hydroxide) and boosted 2 weeks later. One week after boosting with ovalbumin, the animals were challenged with an aerosol of 0.5% strength ovalbumin solution for 20-30 sec. 24 hours later, a bronchoalveolar lavage (BAL) was carried out in the animals under urethane anaesthesia using 2×5 ml of saline solution. The lavage fluid was collected and centrifuged at 400×g for 10 min and the cell pellets were suspended in 1 ml of saline solution. The eosinophilic granulocytes were counted microscopically in a Neubauer chamber. A Becton Dickinson test kit (No. 5877) for eosinophils was used for staining. The test kit used phloxine B as a selective stain for eosinophils. The eosinophils in the BAL were counted for each animal and the eosinophils were calculated in millions/animal. The test substances were administered orally 2 hours before allergen challenge.
The percentage inhibition of eosinophilia of the group treated with substance is calculated according to the following formula:
(A-C)-(B-C)/(A-C)×100=% inhibition […]

[5] = ip, mouse i.p., 100 mg/kg, read-out: Action, MES (protected animals)
[6] = ip, mouse i.p., read-out: Action, MES (protected animals)

Molecule	pKi (adenosine receptor (A3))	selectivity A3/A1 (adenosine receptor (A3))	selectivity A3/A2 (adenosine receptor (A3))	logP [2]	responders at 100 mg/kg (s.c. pentetrazole; mouse i.p., 100 mg/kg) [%]	responders at 100 mg/kg (maximal electroshock [1]; [5]) [%]	responders at 30 mg/kg (maximal electroshock [1]; [6]) [%]	further results
2-benzyl-pyrazolo-[3,4-d]-pyrimidine [reference compound]	–	–	–	–	–	–	–	Action, MES (protected animals) (maximal electroshock [1]; mouse i.p., 100 mg/kg): 100%; Log P (octanol/water partition coefficient): 0.40
NC(=O)N1c2ccccc2C=Cc2ccccc21 [Carbamazepine, reference compound]	–	–	–	–	0	100	–	–
O=c1[nH]cnc2nn(Cc3ccccc3F)cc12 [Example 1, 2-(2-fluorobenzyl)pyrazolo[3,4-d]pyrimidin-4(5H)-one]	5.49	0.7	0.01	0.2	100	–	100	–
O=c1[nH]cnc2nn(Cc3ccccc3Cl)cc12 [Example 2, 2-(2-chlorobenzyl)pyrazolo[3,4-d]pyrimidin-4(5H)-one]	5.70	0.02	0.06	1.01	60	100	–	TD50 (in vivo): > 250 mg/kg; ED50 (maximal electroshock [3]): 32 mg/kg
O=c1[nH]cnc2nn(Cc3ccccc3Br)cc12 [Example 3, 2-(2-bromobenzyl)pyrazolo[3,4-d]pyrimidin-4(5H)-one]	6.37	0.008	0.005	0.56	–	100	–	responders at 300 mg/kg (s.c. pentetrazole; mouse i.p.): 80%; % inhibition of infiltration of eosinophilic granulocytes into the lung [4]: 74%
O=c1[nH]cnc2nn(Cc3ccccc3I)cc12 [Example 4, 2-(2-iodobenzyl)pyrazolo[3,4-d]pyrimidin-4(5H)-one]	6.31	0.008	< 0.0005	0.74	–	–	–	responders at 300 mg/kg (maximal electroshock [1]; ip, mouse i.p., 300 mg/kg, read-out: Action, MES (protected animals)): 100%
O=c1[nH]cnc2nn(Cc3ccccc3C(F)(F)F)cc12 [Example 5, 2-(2-trifluoromethylbenzyl)pyrazolo[3,4-d]pyrimidin-4(5H)-one]	6.10	0.002	0.007	1.08	–	–	100	responders at 30 mg/kg (s.c. pentetrazole; mouse i.p.): 20%
Cc1ccccc1Cn1cc2c(=O)[nH]cnc2n1 [Example 6, 2-(2-methylbenzyl)pyrazolo[3,4-d]pyrimidin-4(5H)-one]	5.40	0.01	0.08	0.75	20	–	100	–
O=c1[nH]cnc2nn(Cc3cccc(C(F)(F)F)c3)cc12 [Example 7, 2-(3-trifluoromethylbenzyl)pyrazolo[3,4-d]pyrimidin-4(5H)-one]	–	–	–	1	60	–	100	–
O=c1[nH]cnc2nn(Cc3c(F)cccc3F)cc12 [Example 8, 2-(2,6-difluorobenzyl)pyrazolo[3,4-d]pyrimidin-4(5H)-one]	–	–	–	0.18	–	–	100	responders at 30 mg/kg (s.c. pentetrazole; mouse i.p.): 40%
S=c1[nH]cnc2nn(Cc3ccccc3Cl)cc12 [Example 15, 2-(2-chlorobenzyl)pyrazolo[3,4-d]pyrimidine-4(5H)-thione]	6.30	0.007	< 0.001	1.54	60	100	–	TD50 (in vivo): > 460 mg/kg; therapeutic breadth, in words (in vivo): great therapeutic breadth; ED50 (maximal electroshock [3]): 12 mg/kg; anticonvulsive action, in words (maximal electroshock [3]; qualitative): strongly anticonvulsive
CCCC(CCC)C(=O)O [Valproate, reference compound]	–	–	–	–	–	–	–	responders at 100 mg/kg (s.c. pentetrazole; Mus musculus): 30%; responders at 100 mg/kg (maximal electroshock [1]; Mus musculus, ip, read-out: Action, MES (protected animals)): 0%

Continued, in another order:

pKi (adenosine receptor (A3))	selectivity A3/A1 (adenosine receptor (A3))	selectivity A3/A2 (adenosine receptor (A3))	logP [2]	Molecule	responders at 100 mg/kg (s.c. pentetrazole; mouse i.p., 100 mg/kg) [%]	responders at 100 mg/kg (maximal electroshock [1]; [5]) [%]	responders at 30 mg/kg (maximal electroshock [1]; [6]) [%]	further results
6.00	0.002	0.004	0.93	O=c1[nH]cnc2nn(Cc3c(F)cccc3Cl)cc12 [Example 9, 2-(2-chloro-6-fluorobenzyl)pyrazolo[3,4-d]pyrimidin-4(5H)-one]	–	–	100	–
5.80	0.02	0.02	1.16	O=c1[nH]cnc2nn(Cc3c(Cl)cccc3Cl)cc12 [Example 10, 2-(2,6-dichlorobenzyl)pyrazolo[3,4-d]pyrimidin-4(5H)-one]	–	60	–	–
6.15	0.04	0.01	1.68	O=c1[nH]cnc2nn(Cc3ccc(Cl)cc3Cl)cc12 [Example 11, 2-(2,4-dichlorobenzyl)pyrazolo[3,4-d]pyrimidin-4(5H)-one]	20	100	–	–
5.01	0.5	0.01	0.62	COc1ccc(Cn2cc3c(=O)[nH]cnc3n2)cc1 [Example 12, 2-(4-methoxybenzyl)pyrazolo[3,4-d]pyrimidin-4(5H)-one]	–	15	–	responders at 300 mg/kg (s.c. pentetrazole; mouse i.p.): 40%
5.08	0.4	0.02	1.21	O=c1[nH]cnc2nn(Cc3cc4c(cc3Cl)OCO4)cc12 [Example 13, 2-(2-chloro-4,5-methylenedioxybenzyl)pyrazolo[3,4-d]pyrimidin-4(5H)-one]	–	30	–	–
6.47	0.005	< 0.001	1.2	S=c1[nH]cnc2nn(Cc3ccccc3Br)cc12 [Example 16, 2-(2-bromobenzyl)pyrazolo[3,4-d]pyrimidine-4(5H)-thione]	–	30	–	–
6.30	0.008	< 0.001	1.4	S=c1[nH]cnc2nn(Cc3ccccc3I)cc12 [Example 17, 2-(2-iodobenzyl)pyrazolo[3,4-d]pyrimidine-4(5H)-thione]	–	30	–	–
–	–	–	1.6	FC(F)(F)c1ccccc1Cn1cc2c(=S)[nH]cnc2n1 [Example 18, 2-(2-trifluoromethylbenzyl)pyrazolo[3,4-d]pyrimidine-4(5H)-thione]	80	100	–	–
–	–	–	1.57	Fc1cccc(F)c1Cn1cc2c(=S)[nH]cnc2n1 [Example 19, 2-(2,6-difluorobenzyl)pyrazolo[3,4-d]pyrimidine-4(5H)-thione]	60	–	100	–
